# Measurements published in ChEMBL document CHEMBL5380773, “Novel Feleucin-K3-Derived Peptides Modified with Sulfono-γ-AA Building Blocks Targeting Pseudomonas aeruginosa and Methicillin-Resistant Staphylococcus aureus Infections” (J Med Chem, 2023).
# Numbered stars: 1 amine (or outer) side, 2 acyl side, 3 side chain; on linkers, the order of the positions; unused ones are H or OH. Square brackets hold non-standard residues; d marks the D form. Peptide text beside a SMILES is read from it. * marks the point of attachment. X14 = CC(C)C[C@@H](CN(CC(N)=O)S(=O)(=O)c1c(C(C)C)cc(C(C)C)cc1C(C)C)N*; X12 = NC(=O)CN(C[C@H](Cc1ccccc1)N*)S(=O)(=O)c1ccc([N+](=O)[O-])cc1; X11 = CC(C)C[C@@H](CN(CC(N)=O)S(=O)(=O)c1ccc([N+](=O)[O-])cc1)N*; X17 = CC(C)C[C@@H](CN(CC(N)=O)S(=O)(=O)c1ccccc1[N+](=O)[O-])N*; X18 = NC(=O)CN(C[C@H](Cc1ccccc1)N*)S(=O)(=O)c1ccc(Cl)cc1; X15 = NC(=O)CN(C[C@H](Cc1ccccc1)N*)S(=O)(=O)c1ccc(I)cc1; X24 = Cc1ccc(S(=O)(=O)N(CC(N)=O)C[C@H](Cc2ccccc2)N*)cc1; X22 = CC(C)C[C@@H](CN(CC(N)=O)S(=O)(=O)c1ccc(F)cc1)N*; Benzenesulfonyl(4-OMe) = COc1ccc(S(=O)(=O)*)cc1; Benzenesulfonyl(4-F) = O=S(=O)(c1ccc(F)cc1)*; X5 = CC(C)c1cc(C(C)C)c(S(=O)(=O)*)c(C(C)C)c1; X3 = N[C@@H](Cc1ccccc1)CN(CC(=O)[*:2])[*:1]; X2 = CC(C)C[C@H](N)CN(CC(=O)[*:2])[*:1]; X10 = O=[N+]([O-])c1ccc(S(=O)(=O)*)cc1; X4 = O=S(=O)(c1cccc(Cl)c1)*
# System: Erythrocyte
# Assay: Hemolytic activity against mouse red blood cells incubated for 1 hr
# Assay type: toxicity, cell-based
row,SMILES,MHC [µg/mL]
1,CC(C)C[C@H](NC(=O)[C@H](CC(C)C)NC(=O)[C@H](CCCCN)NC(=O)[C@H](CCCCN)NC(=O)[C@H](CC(C)C)NC(=O)[C@H](CC(C)C)NC(=O)[C@H](CCCCN)NC(=O)CN(C[C@@H](N)Cc1ccccc1)S(=O)(=O)c1cccc(Cl)c1)C(N)=O (X4-[X3]KLLKKLL-NH2),128
2,CC(C)C[C@H](NC(=O)[C@H](CC(C)C)NC(=O)[C@H](CCCCN)NC(=O)[C@H](CC(C)C)NC(=O)[C@@H](N)Cc1ccccc1)C(=O)N[C@@H](CCCCN)C(=O)N[C@@H](CCCCN)C(=O)N[C@@H](Cc1ccccc1)CN(CC(N)=O)S(=O)(=O)c1ccc(Cl)cc1 (H-FLKLLKK-X18),128
3,CC(C)C[C@H](N)CN(CC(=O)N[C@@H](CCCCN)C(=O)N[C@@H](CC(C)C)C(=O)N[C@@H](CC(C)C)C(=O)N[C@@H](CCCCN)C(=O)N[C@@H](CCCCN)C(=O)N[C@@H](CC(C)C)C(=O)N[C@@H](CC(C)C)C(N)=O)S(=O)(=O)c1c(C(C)C)cc(C(C)C)cc1C(C)C (X5-[X2]KLLKKLL-NH2),32
4,CC(C)C[C@H](N)CN(CC(=O)N[C@@H](CCCCN)C(=O)N[C@@H](CC(C)C)C(=O)N[C@@H](CC(C)C)C(=O)N[C@@H](CCCCN)C(=O)N[C@@H](CCCCN)C(=O)N[C@@H](CC(C)C)C(=O)N[C@@H](CC(C)C)C(N)=O)S(=O)(=O)c1ccc(F)cc1 ({Benzenesulfonyl(4-F)}-[X2]KLLKKLL-NH2),256
5,CC(C)C[C@H](NC(=O)[C@H](CC(C)C)NC(=O)[C@H](CCCCN)NC(=O)[C@H](CCCCN)NC(=O)[C@H](CC(C)C)NC(=O)[C@H](CC(C)C)NC(=O)[C@H](CCCCN)NC(=O)CN(C[C@@H](N)Cc1ccccc1)S(=O)(=O)c1ccc([N+](=O)[O-])cc1)C(N)=O (X10-[X3]KLLKKLL-NH2),256
6,CC(C)C[C@@H](CN(CC(N)=O)S(=O)(=O)c1c(C(C)C)cc(C(C)C)cc1C(C)C)NC(=O)[C@H](CCCCN)NC(=O)[C@H](CCCCN)NC(=O)[C@H](CC(C)C)NC(=O)[C@H](CC(C)C)NC(=O)[C@H](CCCCN)NC(=O)[C@H](CC(C)C)NC(=O)[C@@H](N)Cc1ccccc1 (H-FLKLLKK-X14),32
7,Cc1ccc(S(=O)(=O)N(CC(N)=O)C[C@H](Cc2ccccc2)NC(=O)[C@H](CCCCN)NC(=O)[C@H](CCCCN)NC(=O)[C@H](CC(C)C)NC(=O)[C@H](CC(C)C)NC(=O)[C@H](CCCCN)NC(=O)[C@H](CC(C)C)NC(=O)[C@@H](N)Cc2ccccc2)cc1 (H-FLKLLKK-X24),256
8,COc1ccc(S(=O)(=O)N(CC(=O)N[C@@H](CCCCN)C(=O)N[C@@H](CC(C)C)C(=O)N[C@@H](CC(C)C)C(=O)N[C@@H](CCCCN)C(=O)N[C@@H](CCCCN)C(=O)N[C@@H](CC(C)C)C(=O)N[C@@H](CC(C)C)C(N)=O)C[C@@H](N)Cc2ccccc2)cc1 ({Benzenesulfonyl(4-OMe)}-[X3]KLLKKLL-NH2),256
9,CC(C)C[C@@H](CN(CC(N)=O)S(=O)(=O)c1ccc(F)cc1)NC(=O)[C@H](CCCCN)NC(=O)[C@H](CCCCN)NC(=O)[C@H](CC(C)C)NC(=O)[C@H](CC(C)C)NC(=O)[C@H](CCCCN)NC(=O)[C@H](CC(C)C)NC(=O)[C@@H](N)Cc1ccccc1 (H-FLKLLKK-X22),256
10,CC(C)C[C@H](N)CN(CC(=O)N[C@@H](CCCCN)C(=O)N[C@@H](CC(C)C)C(=O)N[C@@H](CC(C)C)C(=O)N[C@@H](CCCCN)C(=O)N[C@@H](CCCCN)C(=O)N[C@@H](CC(C)C)C(=O)N[C@@H](CC(C)C)C(N)=O)S(=O)(=O)c1ccc([N+](=O)[O-])cc1 (X10-[X2]KLLKKLL-NH2),256
11,CC(C)C[C@H](NC(=O)[C@H](CC(C)C)NC(=O)[C@H](CCCCN)NC(=O)[C@H](CC(C)C)NC(=O)[C@@H](N)Cc1ccccc1)C(=O)N[C@@H](CCCCN)C(=O)N[C@@H](CCCCN)C(=O)N[C@@H](Cc1ccccc1)CN(CC(N)=O)S(=O)(=O)c1ccc(I)cc1 (H-FLKLLKK-X15),128
12,CC(C)C[C@H](N)CN(CC(=O)N[C@@H](CCCCN)C(=O)N[C@@H](CC(C)C)C(=O)N[C@@H](CC(C)C)C(=O)N[C@@H](CCCCN)C(=O)N[C@@H](CCCCN)C(=O)N[C@@H](CC(C)C)C(=O)N[C@@H](CC(C)C)C(N)=O)S(=O)(=O)c1cccc(Cl)c1 (X4-[X2]KLLKKLL-NH2),256
13,CC(C)C[C@@H](CN(CC(N)=O)S(=O)(=O)c1ccccc1[N+](=O)[O-])NC(=O)[C@H](CCCCN)NC(=O)[C@H](CCCCN)NC(=O)[C@H](CC(C)C)NC(=O)[C@H](CC(C)C)NC(=O)[C@H](CCCCN)NC(=O)[C@H](CC(C)C)NC(=O)[C@@H](N)Cc1ccccc1 (H-FLKLLKK-X17),256
14,CC(C)C[C@H](NC(=O)[C@H](CC(C)C)NC(=O)[C@H](CCCCN)NC(=O)[C@H](CC(C)C)NC(=O)[C@@H](N)Cc1ccccc1)C(=O)N[C@@H](CCCCN)C(=O)N[C@@H](CCCCN)C(=O)N[C@@H](Cc1ccccc1)CN(CC(N)=O)S(=O)(=O)c1ccc([N+](=O)[O-])cc1 (H-FLKLLKK-X12),256
15,CC(C)C[C@@H](CN(CC(N)=O)S(=O)(=O)c1ccc([N+](=O)[O-])cc1)NC(=O)[C@H](CCCCN)NC(=O)[C@H](CCCCN)NC(=O)[C@H](CC(C)C)NC(=O)[C@H](CC(C)C)NC(=O)[C@H](CCCCN)NC(=O)[C@H](CC(C)C)NC(=O)[C@@H](N)Cc1ccccc1 (H-FLKLLKK-X11),256
